Measured values reported in patent publication US8658649B2, “Kinase inhibitor” (Sanofi, priority 2006, dated 2014).

System: Collagen-induced arthritis (CIA)
Experiment: Rat collagen induced arthritis, combination dosing with Methotrexate
Assay type: in vivo
Method: Immunization and Challenge: Female Lewis rats were immunized on day 0 and challenged on day 7 with cII from bovine nasal mixed with Freund's incomplete adjuvant at a final collagen concentration of 1.0 mg/ml. The animals were injected at the base of the tail with 400 μg of cII. Combination Dosing Regimen: Rats were dosed with the compound of Formula I (3.0 and 10 mg/kg, p.o., bi.d.) or Methotrexate (MTX, 0.1 and 0.2 mg/kg, p.o., q.d.) as monotherapy or in combinations consisting of each dose of the compound of Formula I with each dose of MTX starting on day 6 and continuing through day 21. Joint Pathology Ankle joint swelling was measured to the nearest 0.01 mm by using electronic digital calipers. Measurements were recorded 7 times throughout the study starting on day 6 and ending on day 21. Body weights were recorded on the same days. On day 21, hind paws were removed at the hairline just above the ankle and fixed in 10% neutral buffered formalin. MicroCT analysis: Ankle joints were examined using a cone-beam μCT scanner. A scout view scan was obtained first for selection of the examination volume of the specimens, followed by positioning, measurement and computational reconstruction. In ankle joints, the ratio of bone surface to bone volume, describing the complexity of bone surface in a certain volume, was analyzed. Statistical Analysis For joint swelling/inflammation, data were analyzed using Everstat v.5 software and a 2-way repeated measure ANOVA with Dunnett's post test. MicroCT data were analyzed by Everstat using a 1-way ANOVA and Newman-Keuls multiple comparison test.

SMILES: CN(Cc1cnc2nc(N)nc(N)c2n1)c1ccc(C(=O)N[C@@H](CCC(=O)O)C(=O)O)cc1 [MTX, Methotrexate, reference compound]
- bone erosion, MicroCT (MTX 0.1 mg/kg monotherapy): effect was not seen
- bone erosion, MicroCT (MTX 0.2 mg/kg po qd monotherapy): significant decrease in bone erosion
